The values below come from patent publication US4714699A, “2-tolylmorpholine derivatives and pharmaceutical compositions” (Societe Anonyme Dite: Laboratoire L. Lafon, priority 1983, dated 1987).

Bounds are passed on as bounds.

The conditions of series [1]: from EP-A-80,940, page 13, lines 6-10; cited from earlier work.
Series [2] is described as follows: cardiovascular study in dogs. In kind it is in vivo.
Series [3] in a line: pretoxicity (LD-O, maximum non-lethal dose). The series is classed as in vivo, male mice. Conditions: intraperitoneally, male mice.
Series [4] is described as follows: overall behavior and reactivities in mice. In kind it is in vivo, male mice. The note with it: mice.
Series [5] in a line: neuropsychopharmacological study, overall findings. The series is classed as in vivo, mice, rats. Conditions: weak doses where stated.
The nature of series [6]: overall behavior in rats. In kind it is in vivo, male rats. Conditions: 64 mg/kg i.p., rats. How it is done:
In the following tests, CRL 40 875, in solution in distilled water, was administered intraperitoneally in a volume of 20 ml/kg to male mice and 5 ml/kg to male rats.
The toxicological and neuropsychopharmacological studies undertaken in accordance with the procedures described above for CRL 40 875 enabled the following observations to be made: […]

Series [7] relates to β1. Put plainly: β1 effect in dogs. In kind it is in vivo. Conditions: intraduodenal, anesthetized dogs.
The test system of series [8] is β2. Put plainly: β2 effect in dogs. Conditions: intraduodenal, anesthetized dogs. In kind it is in vivo.
The mark [9] stands for this setting: anesthetized dogs, intraduodenal (CRL 40 903: then intravenous).
Setting [10] is: intraduodenal, anesthetized dogs.

Take `Cc1ccccc1C1CN(C)CCO1` (stereo not shown) [CRL 40 915, 2-o-tolyl-4-methylmorpholine]: in series [1], the “variation of sedative effects with dose” value is recorded as “no sedation at a given dose, significant sedation at the next highest dose used”.

With `CCN1CCOC(O)(c2cccc(C(F)(F)F)c2)C1.Cl` (stereo not shown) [CRL 41 092, 2-(m-trifluoromethylphenyl)-2-hydroxy-4-ethylmorpholine hydrochloride], the minimal effective dose in series [2] (Canis lupus familiaris, anesthetized dogs, intraduodenal (CRL 40 903: then intravenous), read-out: dose as from which femoral flow rate is increased) is at least 1 mg/kg. In series [2] (setting [9]), the “effect on blood pressure” value is “tends to increase the blood pressure” and the “effect on the hypertension induced by noradrenaline” value is “increases the hypertension induced by noradrenaline”. Besides, the femoral flow rate entry in series [2] (as from 1 mg/kg intraduodenally, anesthetized dogs) is “greatly increases the femoral flow rate”. In series [2] (dog, in vivo), the vasodilator property entry is given as “particularly interesting as vasodilators”. Further, in series [2] (setting [10]), the “effect on heart beat” value is “does not modify the heart beat”; the “rectal and skin temperatures” value was “a reduction in the vertebral flow rate and also in the rectal and skin temperatures”; the vertebral flow rate entry is “a reduction in the vertebral flow rate”. Also, in series [2] (propanolol injected at the end of the test, anesthetized dogs), the “femoral flow rate after propanolol” value is given as “remaining above its control value”. In addition, in series [2] (propanolol injected at the end of the test, anesthetized dogs, intraduodenal), the “effect of propanolol on heart beat and femoral flow rate” value was “very slightly reduces the heart beat and femoral flow rate”. For the same compound, the “LD-O (maximum non-lethal dose)” value in series [3] was “greater than 256 mg/kg”. In addition, in series [4] (32 mg/kg i.p.), the hypothermia result is reported as “moderate hypothermia”. Besides, in series [4] (128 mg/kg i.p.), the duration of sedation stood at 0.5 h; the “fear reaction, reactivity to touch and muscular tonus” value is “a reduction in the fear reaction, the reactivity to touch and the muscular tonus”. For the same compound, the sedative effects result in series [5] was “sedative effects”. Further, in series [6], the “sedation, reactivity to touch and muscular tonus” value was “transistory sedation with a reduction in the reactivity to touch and the muscular tonus”. For the same compound, the β1 effect entry in series [7] was “very slightly β1^-”. Moreover, the β2 effect entry in series [8] was “very slightly β1^- and β2^-”.
